Measured values from patent US20240374487A1, “ANTI-AGING AGENT, COSMETIC PRODUCT, WET TOWEL, AND HYGIENE PRODUCT” (VB JAPAN TECHNOLOGY CO., LTD., priority 2021, published 2024).

Legend:
AQP-3 = AQP-3 mRNA level under oxidative stress (qRT-PCR); format: cell-based, human
Method: (§1) Normal human dermal fibroblasts were cultured for 2 hours in a culture solution to which 0.2 mM hydrogen peroxide was added, then washed off with PBS, and replaced with a normal medium to continue the cultivation. VB2 and VB3 were each added at any timing before or after hydrogen peroxide was added, and co-cultured for 4 hours. Thereafter, the cells or the culture solution were recovered.
(§2) According to the procedure described in “Measurement of Cell Viability” above, normal human dermal fibroblasts were treated and cultured (co-culture), and cells or the culture solution was recovered. The notation of the sample in FIGS. 8 and 9, which are graphs showing the results, is also the same as in the “Measurement of Cell Viability” described above.
(§3) The measurement of aquaporin was performed for AQP-1 and AQP-3 by a qRT-PCR method, and the measurement result was obtained by a ΔΔCt method. […] The qRT-PCR method is s specifically described in “qRT-PCR method” described later.
(§4) The qRT-PCR method used for the measurement of AGE receptor, heat shock protein, aquaporin, hyaluronic acid, and Elastin will be described. In the qRT-PCR method, 500 ng of the obtained total RNA was used as a template for PCR, and one step RT-PCR capable of performing CDNA synthesis by a reverse transcription reaction (Reverse Transcriptase; RT reaction) and quantitative PCR in one test tube was performed using Luna Universal One-Step qRT-PCR Kit.
(§5) As a PCR device, Thermal Cycler Dice Real Time System II manufactured by Takara was used. As one reaction system, 10 μL of Luna Universal One-Step Reaction Mix (2×), 1 μL of Luna WarmStart RT Enzyme Mix (20×), 0.8 μL of Forward primer (10 μM), 0.8 μL of Reverse primer, and Total RNA as a template for the PCR were used, and the total amount was adjusted to 20 μL in Nuclease-free Water.
(§6) The reaction was performed under the conditions of 1 cycle of 30 seconds at 95° C., and further cycles of 5 seconds at 95° C. and 30 seconds at 60° C. for 50 cycles. A variation in mRNA expression by 4 times or more (2 cycles as PCR reaction) was determined as a significant difference.

[1] = test system: AGE receptor (FEEL-1, FEEL-2, CD-36, AGE-R1, AGE-R2, AGE-R3 and RAGE); test: mRNA levels of AGE receptors by qRT-PCR in normal human dermal fibroblasts; format: cell-based; settings: VB alone, no AGE, 37° C. 4 hours, compared with untreated group
Method: (§7) Normal human dermal fibroblasts (NHDF), juvenile foreskin (C-12300, PromoCell) were cultured in a dedicated medium, Fibroblast Growth Medium (C-23010, PromoCell) at 37° C. in a 5% CO2 incubator.
(§8) First, as a co-existence group of VB and AGE, normal human dermal fibroblasts were treated with AGE (100 μg/mL), and the above VB2 (concentration after dilution: 115 μg/ml) and VB3 (concentration after dilution: 1000 μg/mL) diluted to an accurate 1/1000 amount were each added and retained at 37° C. for 4 hours. […]
(§9) Then, total RNA was extracted from the cells using Trizol reagent (Ambion), and mRNA levels of AGE receptor (FEEL-1, FEEL-2, CD-36, AGE-R1, AGE-R2, AGE-R3 and RAGE) and heat shock protein (Hsp104, gp96, Hsp90, Hsp70, Hsp60, and Hsp32) were measured by qRT-PCR (one-step quantitative reverse transcription-polymerase chain reaction) method. […]
as §4, with “Kit. […]” for “Kit.”

[2] = test system: heat shock protein (Hsp104, gp96, Hsp90, Hsp70, Hsp60, and Hsp32); test: mRNA levels of heat shock proteins by qRT-PCR in fibroblasts; format: cell-based, human; settings: 4 hours
Method: as §7
First, as a co-existence group of VB and AGE, normal human dermal fibroblasts were treated with AGE (100 μg/mL), and the above VB2 (concentration after dilution: 115 μg/ml) and VB3 (concentration after dilution: 1000 μg/mL) diluted to an accurate 1/1000 amount were each added and retained at 37° C. for 4 hours.
In addition, as the VB single stimulation group, normal human dermal fibroblasts were not treated with AGE, and the above VB2 and VB3 diluted to an accurate 1/1000 amount were each added and held at 37° C. for 4 hours. Furthermore, as the AGE single stimulation group, normal human dermal fibroblasts were treated with AGE and kept at 37° C. for 4 hours without addition of VB2 or VB3. In addition, as an untreated group, normal human dermal fibroblasts were not treated with AGE, and were kept at 37° C. for 4 hours without adding VB2 or VB3.
Then, total RNA was extracted from the cells using Trizol reagent (Ambion), and mRNA levels of AGE receptor (FEEL-1, FEEL-2, CD-36, AGE-R1, AGE-R2, AGE-R3 and RAGE) and heat shock protein (Hsp104, gp96, Hsp90, Hsp70, Hsp60, and Hsp32) were measured by qRT-PCR (one-step quantitative reverse transcription-polymerase chain reaction) method.
The measurement results for AGE receptor are shown in FIG. 1, and the measurement results for heat shock protein are shown in FIG. 2. In FIG. 1 and FIG. 2, for the co-existence group of AGE and VB, samples to which VB2 and VB3 were added are indicated as VB2(+)AGE and VB3(+)AGE, respectively, and these values were shown in comparison with the AGE single stimulation group. In addition, for the VB single stimulation group, samples to which VB2 and VB3 were added were indicated as VB2 alone and VB3 alone, respectively, and these values were shown in comparison with the untreated group.
as §4
As a PCR device, Thermal Cycler Dice Real Time System II manufactured by Takara was used. […]
as §6

FEEL-2 = FEEL-2 mRNA level by qRT-PCR in AGE-treated fibroblasts; format: cell-based, human; settings: co-existence with AGE 100 μg/mL, 4 hours, compared with AGE single stimulation group
Method: as §7, §8, §9
as §4, with “Kit. […]” for “Kit.”

intracellular ROS [3] = test: Intracellular ROS against AGE (DCF-DA fluorescence); format: cell-based, human; settings: AGE 100 μg/mL, 4 hours, FIG. 3
Method: as §7
Normal human dermal fibroblasts were treated with AGE (100 μg/mL) and maintained at 37° C. for 4 hours with the addition of VB2 and VB3, respectively. Here, VB2 and VB3 were added at concentrations of 1 μg/mL, 10 μg/mL, 100 μg/mL, and 300 μg/mL, respectively. In FIGS. 3 and 4, which are graphs showing the results, those to which VB2was added were denoted as “VB2-AGE”, and those to which VB3 was added were denoted as “VB3-AGE”.
As Control, measurement was also performed on normal human dermal fibroblasts which were not treated with AGE and were held at 37° C. for 4 hours without addition of VB2 or VB3, and as an AGE single stimulation group, measurement was also performed on normal human dermal fibroblasts which were treated with AGE (100 μg/mL) and were held at 37° C. for 4 hours without addition of VB2 or VB3 (in FIGS. 3 and 4, it is denoted as “AGE”.).
Measurement of intracellular ROS was performed using fluorescence using dichlorofluorescin diacetate (DCF-DA; Invitrogen, Carlsbad, CA, USA). […] The intracellular ROS level was measured at an excitation wavelength of 525 nm using fluorescence intensity using the micro plate reader (SYNERGY/HT, BioTek, Japan).

hyaluronic acid = test: Hyaluronic acid secreted into culture supernatant (ELISA); format: cell-based, human
Method: as §1
(§10) According to the procedure described in “Measurement of Cell Viability” above, normal human dermal fibroblasts were treated and cultured (co-culture), and cells or the culture solution was recovered. The concentrations of VB2 and VB3 used and the notation of the samples in FIGS. 10 and 11, which are graphs showing the results, are also similar to the above “Measurement of Cell Viability”.
(§11) The production amounts of hyaluronic acid and Elastin were measured by an ELISA method. The results of measuring the amount of hyaluronic acid secreted from normal human dermal fibroblasts into the culture supernatant by the ELISA method are shown in FIG. 10, and the results of measuring the amount of intracellular Elastin production by the ELISA method are shown in FIG. 11.

FEEL-1 = FEEL-1 mRNA level by qRT-PCR in AGE-treated fibroblasts; format: cell-based, human; settings: co-existence with AGE 100 μg/mL, 4 hours, compared with AGE single stimulation group
Method: as §7, §8, §9
as §4, with “Kit. […]” for “Kit.”

SOD = SOD amount against hydrogen peroxide (SOD Assay Kit); format: cell-based, human; settings: added before and after 0.2 mM hydrogen peroxide, 1-300 μg/mL (H2O2 only 56% of Control)
Method: Superoxide (SOD) was measured using SOD Assay Kit (Cayman Chemical, Ann arbor, MI, USA). Cells that had been subjected to various treatments were incubated for 24 hours, and then a Lysis buffer was added, homogenized, and centrifuged. Then, 10 μL of each sample was mixed with 200 μL of xanthine oxidase at room temperature. After 30 minutes, the absorbance at 450 nm was measured.
as §1
According to the procedure described in “Measurement of Cell Viability” above, normal human dermal fibroblasts were treated and cultured (co-culture), and cells or the culture solution was recovered. The concentrations of VB2 and VB3 used and the notation of the samples in FIGS. 6 and 7, which are graphs showing the results, are also similar to the above “Measurement of Cell Viability”. […]

Elastin = test: Intracellular Elastin production (ELISA); format: cell-based, human
Method: as §1, §10, §11

[4] = test system: normal human dermal fibroblasts; test: Cell viability under hydrogen peroxide oxidative stress (Cell counting-8 kit); format: cell-based; settings: for cell viability, trend: 1-300 μg/mL
Method: as §7, §1
In FIG. 5 which is a graph showing the results, a sample obtained by adding VB2 or VB3 after adding hydrogen peroxide was denoted as “H2O2-VB2” and “H2O2-VB3”, respectively, and a sample obtained by adding hydrogen peroxide after adding VB2 or VB3 was denoted as “VB2-H2O2” and “VB3-H2O2”, respectively.
Here, VB2 and VB3 were added at concentrations of 1 μg/mL, 10 μg/mL, 100 μg/mL, and 300 μg/mL, respectively.
The normal human dermal fibroblasts to which neither hydrogen peroxide nor VB2 nor VB3 was added were treated in the same manner as described above, and measured as Control. In addition, a sample to which VB2 or VB3 was not added (in FIG. 5, it is denoted as “H2O2”) was also treated in the same manner as described above, and measurement was performed.
The number of surviving cells in normal human dermal fibroblasts was measured using Cell counting −8 kit (DOJINDO: , Japan).

intracellular ROS [5] = test: Intracellular ROS production against hydrogen peroxide (DCF-DA); format: cell-based, human; settings: added before and after 0.2 mM hydrogen peroxide, 1-300 μg/mL
Method: Measurement of intracellular ROS was performed using fluorescence using dichlorofluorescin diacetate (DCF-DA; Invitrogen, Carlsbad, CA, USA). Specifically, cells were washed with PBS, and then incubated with 10 μM DCF-DA at 37° C. for 20 minutes. The intracellular ROS level was measured at an excitation wavelength of 525 nm using fluorescence intensity using the micro plate reader (SYNERGY/HT, BioTek, Japan).
as §1
According to the procedure described in “Measurement of Cell Viability” above, normal human dermal fibroblasts were treated and cultured (co-culture), and cells or the culture solution was recovered. The concentrations of VB2 and VB3 used and the notation of the samples in FIGS. 6 and 7, which are graphs showing the results, are also similar to the above “Measurement of Cell Viability”.
The measurement of intracellular ROS and the measurement of superoxide (SOD) were performed by the same methods as the methods described in “Measurement of Intracellular Reactive Oxygen (ROS) Production and Superoxide (SOD) against AGE” above, respectively.
FIGS. 6 and 7 show the results of each sample when Control is 100%.

AQP-1 = AQP-1 mRNA level under oxidative stress (qRT-PCR); format: cell-based, human
Method: as §1, §2, §3, §4, §5, §6

RAGE = RAGE mRNA level by qRT-PCR in AGE-treated fibroblasts; format: cell-based, human; settings: co-existence with AGE 100 μg/mL, 4 hours, compared with AGE single stimulation group
Method: as §7, §8, §9
as §4, with “Kit. […]” for “Kit.”

[6] = added before or after 0.2 mM hydrogen peroxide
[7] = added in advance before oxidative stress, compared with addition after
[8] = added in advance before applying oxidative stress

Na9[SbW9O33] [VB3]
mRNA level of AQP-3 (AQP-3; [6]): increased | AQP-3 mRNA repair ability, addition before vs after oxidative stress (AQP-3; [7]): tended to have a stronger repair ability | mRNA expression of AGE receptor [1]: did not affect | mRNA expression of Hsp ([2]; VB alone, no AGE, compared with untreated group): did not affect | mRNA levels of all Hsps other Hsp 90 among the examined Hsps ([2]; co-existence with AGE 100 μg/mL, compared with AGE single stimulation group): significantly increased | mRNA level of FEEL-2 (FEEL-2): significantly increased | intracellular ROS under AGE stimulation (intracellular ROS [3]): suppress the increase in ROS | amount of hyaluronic acid (hyaluronic acid; 0.2 mM hydrogen peroxide oxidative stress, culture supernatant): tended to be recovered | hyaluronic acid repair ability, addition before vs after oxidative stress (hyaluronic acid; [7]): tended to have a stronger repair ability | mRNA level of FEEL-1 (FEEL-1): significantly increased | SOD amount (SOD): tended to be recovered in a concentration-dependent manner | Elastin production amount (Elastin; added after application of oxidative stress (H2O2 only 56% of Control)): could not be recovered | Elastin production amount (Elastin; [8]): significant recovery | concentration at which Elastin production amount was significantly higher than Control (Elastin; [8]): 300 µg/mL | maximum cell viability ([4]; added after 0.2 mM hydrogen peroxide, 300 μg/mL, % of Control (H2O2 only 59%)): 78% | cell viability, trend ([4]; added after 0.2 mM hydrogen peroxide): increased in a concentration-dependent manner | cell viability, trend ([4]; added in advance before 0.2 mM hydrogen peroxide): significant increase in a concentration-dependent manner | ROS production (intracellular ROS [5]): suppressed in a concentration-dependent manner | mRNA level of AQP-1 (AQP-1; [6]): increased | AQP-1 mRNA repair ability, addition before vs after oxidative stress (AQP-1; [7]): tended to have a stronger repair ability | mRNA level of RAGE (RAGE): significantly increased
